Assays:
[1] = test system: MCF10A normal breast epithelial cells; test: Mitochondrial potential, JC-10; format: cell-based, human; conditions: MitoQ 100 nM, 48 h
Procedure: (§1) The mitochondrial potential (ΔΨ) was measured using JC-10 Mitochondrial Membrane Potential Assay Kit (Abcam®, #ab112134), according to manufacturer's recommendations. Briefly, MDA-MB-231 (10^4 cells/well), SkBr3 (10^4 cells/well), MDA-MB-436 (10^4 cells/well) or MCF10A (10^5 cells/well) cells were seeded in 96-well plates and treated for 48 h±MitoQ. Cells were then washed twice and incubated with JC-10 (1× solution) for 45 min. Fluorescence intensities were measured at 490/525 nm and […] using a SpectraMax i3 spectrophotometer equipped with a MiniMax imaging cytometer (Molecular Devices®).

[2] = test system: MDA-MB-436 breast cancer cells; test: Mitochondrial potential, JC-10; format: cell-based, human; conditions: MitoQ 100 nM, 48 h
Procedure: as §1

MDA-MB-231 cells = test: Cell migration, scratch test; format: cell-based, human; conditions: MitoQ 100 nM, 48 h
Procedure: (§2) A scratch test was performed on cells treated ±MitoQ for 48 h (Tamura et al.; Science, 1998; 280, 1614-1617). For each condition and each time point, pictures were taken in the same field, and the distance between the wound edges was analyzed using the Image J software (Java®). The percentage of scratch closure was calculated in respect to wounded area at 0 h.

MDA-MB-436 cells = test: Cell migration, scratch test; format: cell-based, human; conditions: MitoQ 100 nM, 48 h
Procedure: as §2

SkBr3 cells = test: Cell migration, scratch test; format: cell-based, human; conditions: MitoQ 100 nM, 48 h
Procedure: as §2

MDA-MB-231 spheroids = test: Spheres / stem-like spheroids; format: cell-based, human
Procedure: (§3) Total mRNA from MDA-MB-231, SkBr3 and MDA-MB-436 cells treated ±MitoQ for 48 h was extracted using the NucleoSpin RNA Kit (Macherey-Nagel®). Total mRNA from primary tumors was extracted with Tri reagent (Molecular Research Center®, Cat #TR118). mRNAs were quantified by the Qubit BR dsRNA assay kit (Thermo Fisher Scientific®), and mRNA integrity was evaluated on an Agilent® 2100 Bioanalyzer with the RNA 6000 nano kit (Agilent®). It was reverse transcribed in complementary DNA using the High-Capacity cDNA Reverse Transcription Kit (Applied Biosystems®, cat #4368814) according to manufacturer's protocol. Complementary DNA (500 ng) was amplified by real time quantitative PCR (RT-qPCR) using the low ROX SYBR Master Mix dTTP Blue (Eurogentec®) and primers listed in Table 5 and Table 6 on a ViiA 7 Real-Time PCR System (Thermo Fisher Scientific®). Gene expression was normalized to β-actin gene expression.
(§4) 3D models were used to obtain an enriched population in stem cells. For that, 10^4 MDA-MB-231, SkBr3 or MDA-MB-436 cancer cells were grown in suspension using 10 cm dishes coated with Polyhema in stem-cell medium: DMEM/F-12 (Gibco®, cat #11320033) supplemented with 100 units/mL penicillin, 100 μg/mL streptomycin, 20 μL/mL B27 (Gibco®, cat #17504044), 20 ng/mL human recombinant epithelial growth factor (EGF) (Peprotech®, cat #AF-100-15), 10 ng/mL basic fibroblast growth factor (bFGF; Peprotech®, cat #100-18B) and 2.5 mg/mL insulin. When spheres reached around 100 μm in diameter, they were washed with PBS and dissociated with accutase (Stem Cell Technology®, cat #07920) in order to have single cells again. At the third passage, dissociated spheres were treated ±MitoQ for 96 h. Images were captured on Axiovert™ 40 CFL microscope equipped with a MRC camera. At the end of the treatment, living cells were collected for RNA extraction.
(§5) Stem like-spheroids were prepared by seeding 5,000 MDA-MB-231, SkBr3 or MDA-MB-436 dissociated spheres/well in ultra-Low attachment 96-well plates (Corning®, cat #7007) in stem cell medium supplemented as described above. After overnight formation, spheroids were treated ±MitoQ for 96 h. Spheroid growth was monitored using an Axio Observer live-cell phase contrast microscope (Zeiss®).

SkBr3 spheroids = test: Spheres / stem-like spheroids; format: cell-based, human
Procedure: as §3, §4, §5

[3] = test system: MDA-MB-231 and SkBr3 cells in culture; test: RT-qPCR validation of mRNA biomarkers in vitro; format: cell-based, human; conditions: MitoQ 500 nM, 48 h
Procedure: as §3
While EMT and sternness markers are usual suspects when testing antimetastatic strategies, it was decided to go deeper in the understanding of the molecular effects of MitoQ, and performed unbiased RNA sequencing (RNAseq) using cells treated for 48 h±MitoQ (500 nM). […] On independent samples upon the same conditions (including |log 2 Fold Change|>1 and P<0.01), RT-qPCR on the two cell lines validated all genes as potential biomarkers of human breast cancer cell response to MitoQ, to the exception of EID1, PEG10, FTH1 and NUPR1 (FIG. 12A-M and Table 7).

[4] = test system: primary breast tumors of MMTV-PyMT mice; test: RT-qPCR of primary breast tumors; format: in vivo; conditions: FEC + MitoQ 18 mg/kg daily oral; mouse transcripts; P<0.01; read-out: fold induction of SLC7A11, SERPINE1 and TXNRD1 (each independently)
Procedure: as §3
Female FVB/N-Tg(MMTV-PyMT)634Mul/J (MMTV-PyMT) mice that express the polyomavirus middle T antigen spontaneously develop orthotropic multifocal breast adenocarcinomas that spontaneously disseminate metastases to the lungs during mouse lifetime. […] They were sacrificed at 16 weeks-old, and the lungs insufflated with Indian ink for metastasis quantification as described above. […]

`COC1=C(OC)C(=O)C(CCCCCCCCCC[P+](c2ccccc2)(c2ccccc2)c2ccccc2)=C(C)C1=O` [MitoQ] was tested, and the “mitochondrial potential (Δψ)” value [1] was “not affected”, the “AT (FIG. 14D, mitochondrial potential)” value [2] was “repressed” and the migratory capability (MDA-MB-231 cells) was “highly significantly reduced”. For the same molecule, the cell migration (MDA-MB-436 cells) was “inhibited”, the migratory capability (SkBr3 cells) was “highly significantly reduced” and the “dose sufficient to destabilize already formed spheroids” value (MDA-MB-231 spheroids) was 100 nM. For the same molecule, the “mRNA expression of stem cells markers POU5F1/(Oct4), NANOG and SOX2” value (MDA-MB-231 spheroids; MitoQ 250 nM) was “significant decrease”, the spheroid formation (MDA-MB-231 spheroids; MitoQ 250 nM) was “inhibited” and the “NANOG and SOX2 mRNA expression” value (SkBr3 spheroids) was “decreased”. The “spheroid formation and spheroid destabilization” value (SkBr3 spheroids) was “Neither inhibition of spheroid formation not spheroid destabilization was seen”, the “ASNS transcript upregulated in response to MitoQ: Validated in vitro” value [3] was “+ (Repressed or induced by ≥2-fold with P < 0.01 in both MDA-MB-231 and SkBr3 cells in culture.)” and the “G6PD transcript upregulated in response to MitoQ: Validated in vitro” value [3] was “+ (Repressed or induced by ≥2-fold with P < 0.01 in both MDA-MB-231 and SkBr3 cells in culture.)”. The “PCK2 transcript upregulated in response to MitoQ: Validated in vitro” value [3] was “+ (Repressed or induced by ≥2-fold with P < 0.01 in both MDA-MB-231 and SkBr3 cells in culture.)”, the “PHGDH-1 transcript upregulated in response to MitoQ: Validated in vitro” value [3] was “+ (Repressed or induced by ≥2-fold with P < 0.01 in both MDA-MB-231 and SkBr3 cells in culture.)” and the “PSAT1 transcript upregulated in response to MitoQ: Validated in vitro” value [3] was “+ (Repressed or induced by ≥2-fold with P < 0.01 in both MDA-MB-231 and SkBr3 cells in culture.)”. For the same molecule, the “SERPINE1 transcript upregulated in response to MitoQ: Validated in vitro” value [3] was “+ (Repressed or induced by ≥2-fold with P < 0.01 in both MDA-MB-231 and SkBr3 cells in culture.)”, the “SLC6A9 transcript upregulated in response to MitoQ: Validated in vitro” value [3] was “+ (Repressed or induced by ≥2-fold with P < 0.01 in both MDA-MB-231 and SkBr3 cells in culture.)” and the “SLC7A11 transcript upregulated in response to MitoQ: Validated in vitro” value [3] was “+ (Repressed or induced by ≥2-fold with P < 0.01 in both MDA-MB-231 and SkBr3 cells in culture.)”. The “TXNRD1 transcript upregulated in response to MitoQ: Validated in vitro” value [3] was “+ (Repressed or induced by ≥2-fold with P < 0.01 in both MDA-MB-231 and SkBr3 cells in culture.)” and the fold induction at 18 mg/kg [4] was no less than 2.
